Source: patent US12551479B2, “Acyl-protein thioesterase inhibitor for the treatment and/or prevention of Huntington's disease” (UNIVERSITÉ GRENOBLE ALPES, priority 2019, dated 2026)

How the values were obtained:
[1] = test system: WT and Hdh^CAG/+ corticostriatal network; assay: Synapse density (adjacent SYP and PSD95 spots) in microfluidic corticostriatal network; type: cell-based, mouse; conditions: 1 μM daily
Description: In FIG. 3H, we can see the recording area that was chosen for the assessment of synapse density by quantifying the number of synaptophysin (SYP) spots, a presynaptic marker, and the number of PSD95 spots, a postsynaptic marker. FIG. 3I testifies that in the Hdh^CAG/+ microfluidic network, the number of synapses is decreased in the microfluidic devices.
For striatal StHdh cells, acute treatment was performed at 10 μM for 1 hour before and during the acquisition time. For neurons within the microchambers, treatments were started at DIV2 until DIV12 every day at 1 μM in each compartment of the microfluidic device.
The inventors then assessed synapse density by quantifying the number of synaptophysin spots (presynaptic marker, SYP) adjacent to PSD95 spots (postsynaptic marker) within synaptic chamber of the microfluidic device using high-resolution Airyscan confocal microscopy (FIG. 3H). In Hdh^CAG/+ network, the number of synapses is decreased in the microfluidic devices (FIG. 3I). […] However, this was not significant.

Hdh^CAG140/+ mice [2] = assay: Open Field test; type: in vivo, mouse; conditions: 0.3 mg/kg/day subcutaneous infusion
Description: (§1) Mice littermates were grouped into mixed treatment groups. Males and females were 6 months of age at the beginning of the treatment. For each specific test, all experimental groups were tested on the same day, during the light phase and between Days 16 and 28 of treatment. Prior to testing, mice were acclimatized to the test room for a period of 30 minutes. Treatments were randomly assigned and behavioral tests were performed 12 days before the end of the delivery of the treatment. […] Mice were excluded from analysis if their performance was calculated as a significant outlier by the Grubb test. One mouse was excluded based on these criteria. Mouse weights were measured prior to the start of treatment and until the end of testing.
Spontaneous locomotion was measured as the total distance traveled and general anxiety as the number of entries into the internal area. The Open Field test was conducted in a opaque Plexiglas square chamber (50×50 cm) and the internal chamber was defined with a quadrangular shape of 12.50×12.50 cm. The mice were filmed for 60 minutes. The distance traveled and the number of entries into the internal chamber per 5-minute interval were measured using ViewPoint tracking software.

[3] = test system: brain palmitoylated proteins; assay: ABE (Acyl-Biotin-Exchange) assay on brain lysate; type: in vivo, mice
Description: In FIG. 4D, the graphic representation of the experiment set up to test the efficacy of the molecule to increase the level of palmitoylation in the brain 30 minutes after injection can be visualized. […] Brains were mechanically lysed in ice-cold buffer (1% IGEPAL CA-630; 50 mM Tris-HCl pH 7.5, 150 mM NaCl, 10% glycerol) containing 1:100 protease inhibitor cocktail (Sigma Aldrich P8340), 1 mM PMSF, 1:200 phosphatase inhibitor (Sigma Aldrich P5726), and 50 mM NEM (Sigma Aldrich E3876) to block free cystein. Brain lysates were rotated at 4° C. for 30 minutes before insoluble material was removed by centrifugation at 15.000 rpm for 10 minutes. Lysates were precleared by incubation with Dynabeads M-280 Streptavidin (Invitrogen 112.05D) for 30 minutes at 4° C. on the wheel. Proteins from precleared samples were then precipitated using chloroform-methanol assay. Each pellet was divided and resuspended in +HAM (2:3 of the pellet) (lysis buffer containing 1 mM HAM (Sigma 46780-4)) or −HAM (1:3 of the pellet) during 1 hour at room temperature on the wheel. Proteins were precipitated with chloroform-methanol method and the pellets were resuspended in Biotin-BMCC buffer (lysis buffer with 5 μM EZ-Link™ Biotin-BMCC (Thermo Fisher 21900)) for 1 hour at room temperature on the wheel. […]

Hdh^CAG140/+ mice [4] = assay: Rotarod test; type: in vivo, mouse; conditions: Hdh^CAG/+ mice
Description: as §1
The Rotarod apparatus was used to measure motor coordination and balance. Rotarod test was performed over 6 consecutive days, with 3 days of accelerated rotarod and then 3 days of fixed rotarod. […] The latency and speed at which mice fall off from the rotarod were measured up to 300 sec. For a fixed rotarod, mice were evaluated for 3 trials at 10, 15, and 20 rpm on days 4, 5, and 6, respectively. […] Data are expressed as the average of the 3 trials.

melanoma cells = conditions: studies of Vujic et al., 2015; cited from earlier work
Hdh^CAG/+ mice = assay: Post-mortem synapse density (adjacent PSD95 and Vglut-1 spots) after 28 days of treatment; type: in vivo, mouse
Excerpt: We note that there is a significant reduction in this number of adjacent spots in untreated Hdh^CAG/+ mice.

[5] = test system: mouse cortical neuronal cells; assay: MTT toxicity assay; type: cell-based
Description: Toxicity was assessed using the tetrazolium salt MTT assay. The cortical culture was treated every day as previously described. After treatment, a solution of MTT (Life M6494) was added to the culture medium at 1.2 mM and incubated for 3 hours. The reaction was terminated by adding the solvent solution (4 mM HCl, 0.1% NP40 in isopropanol). The absorbance value was measured at 595 and 690 nm.

**Q.** Which “number of synapses (adjacent SYP and PSD95 spots)” value ([1]; Hdh^CAG/+ network) does the source give for `O=C(CN1CCN(C(=O)c2ccco2)CC1)Nc1cc(C(F)(F)F)ccc1Cl` [ML-348] here?
**A.** The value was “restored the number of synapses”.

**Q.** What about the “number of synapses (adjacent SYP and PSD95 spots)” value ([1]; wild-type network, not statistically significant) of the same compound?
**A.** The value was “slightly reduced synapse connectivity”.

**Q.** And the “total distance traveled over 60 minutes (spontaneous locomotion)” value (Hdh^CAG140/+ mice [2])?
**A.** Its value is “no effect”.

**Q.** And the “number of entries into the central area over 60 minutes” value (Hdh^CAG140/+ mice [2]; wild-type and Hdh^CAG/+ mice)?
**A.** The value was “no significant effect”.

**Q.** What about the “palmitoylation in brain (ABE, +HAM vs −HAM)” value ([3]; HdH^CAG/+ mice, 28 days of treatment, 0.3 mg/kg/day subcutaneous osmotic pump) of the same compound?
**A.** The value was “increase palmitoylation”.

**Q.** What about the “level of palmitoylation in brain lysates” value ([3]; mice injected with 0.3 mg/kg, 30 minutes after injection) of the same compound?
**A.** Its value is “increased”.

**Q.** What about the “average speed achieved on accelerated rotarod” value (Hdh^CAG140/+ mice [4]; 4 to 40 rpm in 600, 300, 120 s, statistically significant in the 300 s condition) of the same compound?
**A.** Its value is “recover motor coordination close to that of wild-type mice”.

**Q.** And the “performance on fixed speed rotarod” value (Hdh^CAG140/+ mice [4]; constant speed 10 and 15 rpm)?
**A.** The value was “significantly improved the performances”.

**Q.** What about the “effect on melanoma cells” value (melanoma cells) of the same compound?
**A.** The value was “no biologically significant effect”.

**Q.** And the “synaptic density, number of PSD95 and Vglut-1 adjacent dots per 100 μm^2” value (Hdh^CAG/+ mice)?
**A.** The value was “restores synaptic density to a level approximately equal to that of untreated wild-type mice”.

**Q.** What about the “cell viability (MTT)” value ([5]; 100 nM, 1 μM or 10 μM) of the same compound?
**A.** Its value is “no effect”.

**Q.** And the “toxicity (MTT)” value ([5]; 1 μM, for 12 days)?
**A.** The value was “no toxicity”.

**Q.** And the “toxicity (MTT)” value ([5]; 100 μM, over 48 hours)?
**A.** Its value is “toxic”.

**Q.** And the “toxicity (MTT)” value ([5]; wild-type cortical cultures, 1 μM for 10 days)?
**A.** Its value is “no toxicity”.
